Measurements from ChEMBL document CHEMBL1201862, “PubChem BioAssay data set” (2004).
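Step 1: Grow cells in 96-well plates. Step 2: Expose to compound for 48 hours at 5 concentrations. Step 3: Interpolate endpoints linearly; if unreached, use highest concentration. At the GI50, growth is halved.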 Activity calls are given as the source filed them. No stated cut-off is given here; in the data, active = GI50 up to about 1.1 µM and inactive = higher.

Experiments:
Assay in all cases: DTP human tumour cell line panel, 48 h
BT-549 = test system: BT-549
HCT-116 = test system: HCT-116
HT-29 = test system: HT-29
K562 = test system: K562
KM12 = test system: KM12
MDA-MB-435 = test system: MDA-MB-435
MOLT-4 = test system: MOLT-4
NCI-H460 = test system: NCI-H460
NCI-H522 = test system: NCI-H522
NCI/ADR-RES = test system: NCI/ADR-RES
OVCAR-4 = test system: OVCAR-4
RPMI-8226 = test system: RPMI-8226
RXF 393 = test system: RXF 393
SK-MEL-5 = test system: SK-MEL-5
SW-620 = test system: SW-620
TK-10 = test system: TK-10
UACC-62 = test system: UACC-62
UO-31 = test system: UO-31
HCC 2998 = test system: HCC 2998

| SMILES | GI50 (BT-549) | GI50 (HCT-116) | GI50 (HT-29) | GI50 (K562) | GI50 (KM12) | GI50 (MDA-MB-435) | GI50 (MOLT-4) | GI50 (NCI-H460) | GI50 (NCI-H522) | GI50 (NCI/ADR-RES) | GI50 (OVCAR-4) | GI50 (RPMI-8226) | GI50 (RXF 393) | GI50 (SK-MEL-5) | GI50 (SW-620) | GI50 (TK-10) | GI50 (UACC-62) | GI50 (UO-31) | GI50 (HCC 2998) |
| --- | --- | --- | --- | --- | --- | --- | --- | --- | --- | --- | --- | --- | --- | --- | --- | --- | --- | --- | --- |
| O=S(=O)(Cc1ccccc1)c1nnc(S(=O)(=O)c2ccc(Cl)cc2)s1 | 20 µM (inactive) | 19.5 µM (inactive) | 22.5 µM (inactive) | 32.2 µM (inactive) | 25.7 µM (inactive) | 27.1 µM (inactive) | 3.39 µM (inactive) | 21.2 µM (inactive) | 14 µM (inactive) | 25 µM (inactive) | 24.4 µM (inactive) | 15.9 µM (inactive) | 17.3 µM (inactive) | 17.9 µM (inactive) | 23.9 µM (inactive) | 12.2 µM (inactive) | 27 µM (inactive) | 21.3 µM (inactive) | – |
| CC(C)CCC1(CCN)C(=O)NC(=O)NC1=O | > 100 µM (inactive) | > 100 µM (inactive) | > 100 µM (inactive) | 16.3 µM (inactive) | > 100 µM (inactive) | > 100 µM (inactive) | 16.2 µM (inactive) | > 100 µM (inactive) | > 100 µM (inactive) | > 100 µM (inactive) | > 100 µM (inactive) | > 100 µM (inactive) | > 100 µM (inactive) | > 100 µM (inactive) | > 100 µM (inactive) | > 100 µM (inactive) | > 100 µM (inactive) | > 100 µM (inactive) | – |
| O=[N+]([O-])c1ccc(/C(=N/c2ccccc2)SS/C(=N\c2ccccc2)c2ccc([N+](=O)[O-])o2)o1 | 1.75 µM (inactive) | 1.5 µM (inactive) | 1.35 µM (inactive) | 1.34 µM (inactive) | 1.68 µM (inactive) | 2.1 µM (inactive) | 2.51 µM (inactive) | 1.33 µM (inactive) | 0.243 µM (active) | 1.86 µM (inactive) | 1.47 µM (inactive) | – | 1.75 µM (inactive) | 5.78 µM (inactive) | 0.425 µM (active) | 3.13 µM (inactive) | 1.61 µM (inactive) | 1.47 µM (inactive) | 1.59 µM (inactive) |
| CC(C)(C)OC(=O)Cn1ncn(NC(=O)Cc2ccccc2)c1=S | > 10 µM (inactive) | > 10 µM (inactive) | > 10 µM (inactive) | > 10 µM (inactive) | > 10 µM (inactive) | > 10 µM (inactive) | > 10 µM (inactive) | > 10 µM (inactive) | > 10 µM (inactive) | > 10 µM (inactive) | > 10 µM (inactive) | – | – | > 10 µM (inactive) | > 10 µM (inactive) | > 10 µM (inactive) | > 10 µM (inactive) | > 10 µM (inactive) | > 10 µM (inactive) |
| COc1c(C)c(C/C=C(\C)CCCCO[Si](C(C)C)(C(C)C)C(C)C)c(OC)c2ccccc12 | > 100 µM (inactive) | > 100 µM (inactive) | > 100 µM (inactive) | > 100 µM (inactive) | > 100 µM (inactive) | > 100 µM (inactive) | 47.6 µM (inactive) | > 100 µM (inactive) | > 100 µM (inactive) | > 100 µM (inactive) | > 100 µM (inactive) | – | > 100 µM (inactive) | > 100 µM (inactive) | > 100 µM (inactive) | > 100 µM (inactive) | > 100 µM (inactive) | > 100 µM (inactive) | > 10 µM (inactive) |
| O=C(NC(CS)C(=O)O)c1c2ccccc2nc2ccccc12 (stereo unspecified) | 12.8 µM (inactive) | 13.6 µM (inactive) | 14.5 µM (inactive) | 40.2 µM (inactive) | 24.8 µM (inactive) | 2.81 µM (inactive) | 22.2 µM (inactive) | 23.6 µM (inactive) | 31.1 µM (inactive) | 67.9 µM (inactive) | > 100 µM (inactive) | 54.1 µM (inactive) | – | 3.28 µM (inactive) | 34 µM (inactive) | > 100 µM (inactive) | 48.8 µM (inactive) | 3.87 µM (inactive) | 83.9 µM (inactive) |
| Cc1cccc(Cl)c1NCC(O)CN1CCN(C)CC1 (stereo unspecified) | > 100 µM (inactive) | > 100 µM (inactive) | > 100 µM (inactive) | > 100 µM (inactive) | > 100 µM (inactive) | > 100 µM (inactive) | > 100 µM (inactive) | > 100 µM (inactive) | > 100 µM (inactive) | > 100 µM (inactive) | > 100 µM (inactive) | – | > 100 µM (inactive) | > 100 µM (inactive) | > 100 µM (inactive) | > 100 µM (inactive) | > 100 µM (inactive) | > 100 µM (inactive) | > 100 µM (inactive) |
| Cc1cc(=O)[nH]c2cc(NC(=O)C(C)NC(=O)C(C)NC(=O)C(C)NC(=O)OC(C)(C)C)ccc12 (stereo unspecified) | > 15 µM (inactive) | > 15 µM (inactive) | > 15 µM (inactive) | > 15 µM (inactive) | > 15 µM (inactive) | > 15 µM (inactive) | > 15 µM (inactive) | > 15 µM (inactive) | > 15 µM (inactive) | > 15 µM (inactive) | > 15 µM (inactive) | – | > 15 µM (inactive) | > 15 µM (inactive) | > 15 µM (inactive) | > 15 µM (inactive) | > 15 µM (inactive) | > 15 µM (inactive) | > 15 µM (inactive) |
| Nc1ccc(CCN2CCN(CCCc3ccccc3)CC2)cc1 | 80.7 µM (inactive) | 31.9 µM (inactive) | 16.2 µM (inactive) | 24.2 µM (inactive) | 82.8 µM (inactive) | > 100 µM (inactive) | 50.4 µM (inactive) | 63.4 µM (inactive) | 39.2 µM (inactive) | 86.9 µM (inactive) | 53.1 µM (inactive) | 46.7 µM (inactive) | – | 29.6 µM (inactive) | > 100 µM (inactive) | > 100 µM (inactive) | > 100 µM (inactive) | 56.9 µM (inactive) | 34.4 µM (inactive) |
| CCOC(=O)C1=C(C)NC(=O)NC1c1coc2cc(C)cc(C)c2c1=O (stereo unspecified) | 99.3 µM (inactive) | 36.9 µM (inactive) | 32.1 µM (inactive) | 30.7 µM (inactive) | 30 µM (inactive) | 4.5 µM (inactive) | 27.5 µM (inactive) | 25.9 µM (inactive) | 1.68 µM (inactive) | 27.5 µM (inactive) | 55.3 µM (inactive) | 41.7 µM (inactive) | 25.4 µM (inactive) | > 51.2 µM (inactive) | 32.1 µM (inactive) | 38.9 µM (inactive) | 61.5 µM (inactive) | 44 µM (inactive) | – |
| CO[C@H]1/C=C/O[C@@]2(C)Oc3c(C)c(O)c4c(O)c(c(/C=N/N5CCN(C)CC5)c(O)c4c3C2=O)NC(=O)/C(C)=C\C=C\[C@H](C)[C@H](O)[C@@H](C)[C@@H](O)[C@@H](C)[C@H](OC(C)=O)[C@@H]1C [RIFAMPIN] | 62.8 µM (inactive) | 97.7 µM (inactive) | 60 µM (inactive) | > 100 µM (inactive) | > 100 µM (inactive) | > 100 µM (inactive) | 68.7 µM (inactive) | 45.8 µM (inactive) | – | > 100 µM (inactive) | – | 52.1 µM (inactive) | > 100 µM (inactive) | 61.4 µM (inactive) | > 100 µM (inactive) | > 100 µM (inactive) | > 100 µM (inactive) | 68.4 µM (inactive) | 72.6 µM (inactive) |
| O=C(Nc1ccc(Cl)cc1)Oc1ccc(C(=S)Nc2ccc(Br)cc2)cc1 | 17.9 µM (inactive) | 10.3 µM (inactive) | 2.19 µM (inactive) | 2.36 µM (inactive) | 2.55 µM (inactive) | 12.4 µM (inactive) | 4.44 µM (inactive) | 4.85 µM (inactive) | 10.4 µM (inactive) | 9.53 µM (inactive) | 7.4 µM (inactive) | 23.5 µM (inactive) | – | 6.1 µM (inactive) | 20.3 µM (inactive) | – | 1.63 µM (inactive) | 18.2 µM (inactive) | 15.4 µM (inactive) |
| CCOC(=O)C1C(c2ccc(O)c(OC)c2)c2c(n[nH]c2O)CC1(C)O (stereo unspecified) | 0.0159 µM (active) | > 100 µM (inactive) | > 100 µM (inactive) | – | > 100 µM (inactive) | > 100 µM (inactive) | > 100 µM (inactive) | > 10 µM (inactive) | > 100 µM (inactive) | > 100 µM (inactive) | > 100 µM (inactive) | > 100 µM (inactive) | – | > 100 µM (inactive) | > 100 µM (inactive) | > 100 µM (inactive) | > 100 µM (inactive) | > 100 µM (inactive) | > 100 µM (inactive) |
| O=C(O)CNc1ccc2c(c1)Cc1cc(Br)ccc1-2 | 23.3 µM (inactive) | 18.5 µM (inactive) | 27.1 µM (inactive) | 9.29 µM (inactive) | 9.57 µM (inactive) | 15.3 µM (inactive) | 0.746 µM (active) | 21.8 µM (inactive) | 18.5 µM (inactive) | 25.6 µM (inactive) | 20.1 µM (inactive) | 19.9 µM (inactive) | 31 µM (inactive) | 6.55 µM (inactive) | 24.2 µM (inactive) | 31.1 µM (inactive) | 17.4 µM (inactive) | 36 µM (inactive) | – |
| COc1ccc(C2NC(=O)Nc3c2c(=O)oc2c3ccc3ccccc32)cc1 (stereo unspecified) | 41.6 µM (inactive) | 75.9 µM (inactive) | 77.6 µM (inactive) | 48.1 µM (inactive) | 57 µM (inactive) | 56.5 µM (inactive) | 62.8 µM (inactive) | 50.8 µM (inactive) | 53.2 µM (inactive) | 69.5 µM (inactive) | 48 µM (inactive) | 43.3 µM (inactive) | 42 µM (inactive) | 71.6 µM (inactive) | > 100 µM (inactive) | 74.3 µM (inactive) | 29.6 µM (inactive) | 52.7 µM (inactive) | – |
